Data taken from US20080051419A1, “AMINE DERIVATIVES USEFUL AS ANTICANCER AGENTS” (PFIZER INC., priority 2006, published 2008).
Read-outs that look alike come from different tables or passages of the source.

Target: T1, Akt1 (Homo sapiens, UniProt P31749, S473D)
T1 construct: The version of Akt used in these studies lacks the pleckstrin homology (PH) domain
Assay: Akt1 kinase assay, fluorescence polarization (IMAP)
Assay type: biochemical
Experimental: The Akt1 kinase assay is based on the measurement of fluorescence polarization using IMAP technology (Molecular Devices Corporation #R8062). Two microliters of inhibitor compounds diluted to a concentration of 10 millimolar are added to column 2 of a polypropylene 96-well plate containing 98 microliters of 100% DMSO; the wells in columns 3-12 contain 60 microliters of 100% DMSO. The various test compounds are serially diluted 1:3 across the plate by pipetting 30 microliters of compounds into wells containing 60 microliters of 100% DMSO. Column 12 receives DMSO only and is used as a negative control for inhibition. The components of the wells are mixed and 15 microliters of each well are transferred to another 96-well plate already containing 60 microliters of reaction buffer (RB: 10 mM Tris-HCl, pH 7.5, 10 mM MgCl2, 0.1 mM EGTA, 0.01% Triton-X100 (Sigma #X-100), freshly added 1 mM DTT). After mixing, the […] reactions are assembled. First, five microliters of the above compound/reaction buffer mixture is transferred to the bottom of a 96-well black polystyrene reaction plate (Costar, #3694). Next, ten microliters of a solution containing 4 micromolar ATP and 40 nanomolar fluorescent-labeled Crosstide (Tamara-labeled […] peptide) are added. Then, 5 microliters (1.5 nanograms) of Akt protein in RB are added. The version of Akt used in these studies lacks the pleckstrin homology (PH) domain, and contains an aspartic acid residue in place of a serine residue in position 473 within the Akt1 hydrophobic motif. The Akt1 protein contains a polyhistidine tag at the amino terminus and is prephosphorylated on threonine at position 308 in order to activate latent kinase activity. Once the reaction components and inhibitors are assembled, the plates are gently tapped, covered with foil, and then incubated at ambient temperature for 30 minutes. IMAP beads (Molecular Devices) are then added (60 microliters of a 1:400 dilution of beads in RB). Plates are read on a Victor Plate Reader with the following settings: CW lamp filter: 544 nm, emission filter: 615 nm. Control values from wells lacking Akt protein are subtracted from the gross readings, and IC50 values are calculated using XLDA.

[1] = Table 1, concentration bins, read-out: Concentration Range at which exemplary compounds of formula I inhibit Akt kinase activity
[2] = average Akt kinase activity (IC50), read-out: Avg Akt kinase, μM (50% inhibition)
[3] = Table 3, read-out: Avg Akt kinase, μM (50% inhibition)
[4] = read-out: Avg Akt kinase, μM (50% inhibition)

T1 sequence (P31749 118-480 S473D limits assumed, species assumed): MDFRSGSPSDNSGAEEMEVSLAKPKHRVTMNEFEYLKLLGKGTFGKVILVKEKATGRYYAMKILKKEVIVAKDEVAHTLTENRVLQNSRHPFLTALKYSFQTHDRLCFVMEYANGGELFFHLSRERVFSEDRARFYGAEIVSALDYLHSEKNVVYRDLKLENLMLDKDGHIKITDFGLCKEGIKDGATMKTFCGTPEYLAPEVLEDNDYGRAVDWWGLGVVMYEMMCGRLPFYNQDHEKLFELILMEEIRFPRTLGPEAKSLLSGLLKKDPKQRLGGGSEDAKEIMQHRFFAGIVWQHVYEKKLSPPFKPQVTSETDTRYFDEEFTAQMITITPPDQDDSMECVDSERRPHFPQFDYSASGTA

| Structure (SMILES) | IC50 [1] | IC50 (Table 4, read-out: Avg Akt kinase, μM (50% inhibition)) | IC50 [2] | IC50 [3] | IC50 [4] |
| --- | --- | --- | --- | --- | --- |
| N#Cc1c[nH]c2ncnc(N3CCC(N)(COc4cccc(C(F)(F)F)c4)C3)c12 (stereo not shown) [Example 63, 4-(3-amino-3-{[3-(trifluoromethyl)phenoxy]methyl}pyrrolidin-1-yl)-7H-pyrrolo[2,3-d]pyrimidine-5-carbonitrile] | 0.0101 to 0.1 µM | 0.0641 µM | – | – | – |
| Cc1c[nH]c2ncnc(N3CCC(N)(CNS(=O)(=O)c4ccccc4)C3)c12 (stereo not shown) [Example 77, N-{[3-amino-1-(5-methyl-7H-pyrrolo[2,3-d]pyrimidin-4-yl)pyrrolidin-3-yl]methyl}benzenesulfonamide] | 0.101 to 10 µM | – | 0.177 µM | – | – |
| N#Cc1c[nH]c2nccc(N3CCC(N)(CNc4ccccc4Oc4ccccc4)C3)c12 (stereo not shown) [Example 11, 4-(3-amino-3-{[(2-phenoxyphenyl)amino]methyl}pyrrolidin-1-yl)-1H-pyrrolo[2,3-b]pyridine-3-carbonitrile] | 0.00251 to 0.01 µM | – | – | – | – |
| Cc1c[nH]c2ncnc(N3CC[C@](N)(CNC(=O)c4ccccc4Cl)C3)c12 [Example 71, N—(((S)-3-amino-1-(5-methyl-7H-pyrrolo[2,3-d]pyrimidin-4-yl)pyrrolidin-3-yl)methyl)-2-chlorobenzamide] | 0.00251 to 0.01 µM | – | 0.00797 µM | – | – |
| Cc1c[nH]c2ncnc(N3CCC(N)(CN(C)C(=O)c4ccccc4F)C3)c12 (stereo not shown) [Example 197, N-((3-amino-1-(5-methyl-7H-pyrrolo[2,3-d]pyrimidin-4-yl)pyrrolidin-3-yl)methyl)-2-fluoro-N-methylbenzamide] | 0.101 to 10 µM | – | – | – | 0.148 µM |
| CCc1c[nH]c2ncnc(N3CCC(N)(CNc4cccc(C(F)(F)F)c4)C3)c12 (stereo not shown) [Example 9] | 0.00025 to 0.0025 µM | – | – | 0.002 µM | – |
| Cc1c[nH]c2ncnc(N3CCC(N)(CNc4ccc(Cl)cc4F)C3)c12 (stereo not shown) [Example 31, 3-{[(4-chloro-2-fluorophenyl)amino]methyl}-1-(5-methyl-7H-pyrrolo[2,3-d]pyrimidin-4-yl)pyrrolidin-3-amine] | 0.00251 to 0.01 µM | – | – | 0.00514 µM | – |
| Cc1c[nH]c2ncnc(N3CC[C@](N)(CNC(=O)c4cccc(Cl)c4)C3)c12 [Example 115] | 0.00251 to 0.01 µM | – | 0.00998 µM | – | – |
| Cc1c[nH]c2ncnc(N3CCC(N)(CNS(=O)(=O)c4c(F)cccc4F)C3)c12 (stereo not shown) [Example 198, N-{[3-amino-1-(5-methyl-7H-pyrrolo[2,3-d]pyrimidin-4-yl)pyrrolidin-3-yl]methyl}-2,6-difluorobenzenesulfonamide] | 0.0101 to 0.1 µM | – | – | – | 0.00267 µM |
| N#Cc1n[nH]c2ncnc(N3CCC(N)(CNc4cccc(Cl)c4)C3)c12 (stereo not shown) [Example 8, 4-{3-Amino-3-[(3-chloro-phenylamino)-methyl]-pyrrolidin-1-yl}-1H-pyrazolo[3,4-d]pyrimidine-3-carbonitrile] | 0.101 to 10 µM | – | – | 0.249 µM | – |
| Cc1c[nH]c2ncnc(N3CCC(N)(CSc4cccc(C(F)(F)F)c4)C3)c12 (stereo not shown) [Example 66, 1-(5-methyl-7H-pyrrolo[2,3-d]pyrimidin-4-yl)-3-((3-(trifluoromethyl)phenylthio)methyl) -pyrrolidin-3-amine] | 0.101 to 10 µM | – | 0.701 µM | – | – |
| N#Cc1c[nH]c2ncnc(N3CC[C@](N)(CNC(=O)c4ccccc4)C3)c12 [Example 111, N-{[(3S)-3-amino-1-(5-cyano-7H-pyrrolo[2,3-d]pyrimidin-4-yl)pyrrolidin-3-yl]methyl}benzamide] | 0.0101 to 0.1 µM | – | 0.0265 µM | – | – |
| Cc1c[nH]c2ncnc(N3CCC(N)(CN(C)c4ccccc4)C3)c12 (stereo not shown) [Example 48, 3-{[methyl(phenyl)amino]methyl}-1-(5-methyl-7H-pyrrolo[2,3-d]pyrimidin-4-yl)pyrrolidin-3-amine] | 0.101 to 10 µM | – | – | 0.12 µM | – |
| N#Cc1c[nH]c2ncnc(N3CCC(N)(CNc4cccc5c4CCCC5)C3)c12 (stereo not shown) [Example 38, 4-{3-amino-3-[(5,6,7,8-tetrahydronaphthalen-1-ylamino)methyl]pyrrolidin-1-yl}-7H-pyrrolo[2,3-d]pyrimidine-5-carbonitrile] | 0.00251 to 0.01 µM | – | – | 0.00371 µM | – |
| Cc1c[nH]c2ncnc(N3CC[C@](N)(CNC(=O)c4ccccc4)C3)c12 [Example 109, N-{[(3S)-3-amino-1-(5-methyl-7H-pyrrolo[2,3-d]pyrimidin-4-yl)pyrrolidin-3-yl]methyl}benzamide] | 0.00251 to 0.01 µM | – | 0.00586 µM | – | – |
| Cc1c[nH]c2ncnc(N3CCC(N)(CNc4cc(C(F)(F)F)ccc4Oc4ccc(Cl)cc4)C3)c12 (stereo not shown) [Example 33, 3-({[2-(4-chlorophenoxy)-5-(trifluoromethyl)phenyl]amino}-methyl)-1-(5-methyl-7H-pyrrolo[2,3-d]pyrimidin-4-yl)pyrrolidin-3-amine] | 0.00251 to 0.01 µM | – | – | 0.00859 µM | – |
| CN(CC1(N)CCN(c2ncnc3[nH]cc(Cl)c23)C1)c1ccc(Cl)cc1 (stereo not shown) [Example 55, 3-{[(4-chlorophenyl)(methyl)-amino]methyl}-1-(5-chloro-7H-pyrrolo[2,3-d]pyrimidin-4-yl)pyrrolidin-3-amine] | 0.0101 to 0.1 µM | – | – | 0.012 µM | – |

Results, then the molecule that gave them:

| IC50 [1] | IC50 (Table 4, read-out: Avg Akt kinase, μM (50% inhibition)) | IC50 [2] | IC50 [3] | IC50 [4] | Structure (SMILES) |
| --- | --- | --- | --- | --- | --- |
| 0.00251 to 0.01 µM | – | – | 0.00807 µM | – | N#Cc1c[nH]c2ncnc(N3CCC(N)(CNc4cccc(C(F)(F)F)c4F)C3)c12 (stereo not shown) [Example 40, 4-[3-amino-3-({[2-fluoro-3-(trifluoromethyl)phenyl]amino}-methyl)pyrrolidin-1-yl]-7H-pyrrolo[2,3-d]pyrimidine-5-carbonitrile] |
| 0.0101 to 0.1 µM | – | 0.0139 µM | – | – | CCc1c[nH]c2ncnc(N3CC[C@](N)(CNC(=O)c4cccc(F)c4Cl)C3)c12 [Example 125, N-{[(3S)-3-amino-1-(5-ethyl-7H-pyrrolo[2,3-d]pyrimidin-4-yl)pyrrolidin-3-yl]methyl}-2-chloro-3-fluorobenzamide] |
| 0.00251 to 0.01 µM | – | 0.00376 µM | – | – | N[C@]1(CNC(=O)c2cccc(Cl)c2)CCN(c2ncnc3[nH]cc(Cl)c23)C1 [Example 112, N-{[(3S)-3-amino-1-(5-chloro-7H-pyrrolo[2,3-d]pyrimidin-4-yl)pyrrolidin-3-yl]methyl}-3-chlorobenzamide] |
| 0.0101 to 0.1 µM | – | – | 0.0287 µM | – | Cc1c[nH]c2ncnc(N3CCC(N)(CNc4nccc(C(F)(F)F)n4)C3)c12 (stereo not shown) [Example 57, N-{[3-amino-1-(5-methyl-7H-pyrrolo[2,3-d]pyrimidin-4-yl)pyrrolidin-3-yl]methyl}-4-(trifluoromethyl)pyrimidin-2-amine] |
| 0.0101 to 0.1 µM | – | – | 0.014 µM | – | Cc1c[nH]c2ncnc(N3CC[C@](N)(CNC4=NC(=O)CC=C4)C3)c12 [Example 56, 6-({[(3S)-3-amino-1-(5-methyl-7H-pyrrolo[2,3-d]pyrimidin-4-yl)pyrrolidin-3-yl]methyl}amino)pyridin-2(3H)-one] |
| 0.00025 to 0.0025 µM | – | – | 0.002 µM | – | Cc1c[nH]c2ncnc(N3CC[C@](N)(CNc4ccc(Cl)cc4)C3)c12 [Example 18, (3S)-3-{[(4-chlorophenyl)amino]methyl}-1-(5-methyl-7H-pyrrolo[2,3-d]pyrimidin-4-yl)pyrrolidin-3-amine] |
| 0.00251 to 0.01 µM | – | 0.00972 µM | – | – | Cc1c[nH]c2ncnc(N3CC[C@](N)(CNC(=O)c4ccc(F)cc4Cl)C3)c12 [Example 100, N-{[(3S)-3-amino-1-(5-methyl-7H-pyrrolo[2,3-d]pyrimidin-4-yl)pyrrolidin-3-yl]methyl}-2-chloro-4-fluorobenzamide] |
| 0.00251 to 0.01 µM | – | 0.0073 µM | – | – | CCc1c[nH]c2ncnc(N3CC[C@](N)(CNC(=O)c4ccccc4)C3)c12 [Example 110, N-{[(3S)-3-amino-1-(5-ethyl-7H-pyrrolo[2,3-d]pyrimidin-4-yl)pyrrolidin-3-yl]methyl}benzamide] |
